Patent US20150266920A1, “MACROCYCLIC KETOAMIDE IMMUNOPROTEASOME INHIBITORS” (HOFF-MANN-LA ROCHE INC., priority 2012, published 2015)

Legend:
β 5i = target: T1, β 5i (Homo sapiens, UniProt P20618+P28062); experiment: Cell-Based Proteasome Activity/Selectivity Assay, Ramos cells, substrate (ANW)2Rh110; settings: β5i substrate (ANW)2Rh110, read-out: Ic50 ramos: ac-(anw)2-r110
T1 construct: protease activity associated with the proteasome complex in cultured cells; endogenous in cells; host or cells: Ramos cells
Text: (§1) Cell-Based Proteasome Activity/Selectivity Assay
(§2) The Cell-Based Proteasome subunit activity/selectivity assay was a panel of 5 fluorogenic assays that independently measured the activity of β5c or β 5i (chymotrypsin-like activity), β2c/2i (trypsin-like), and β 1c or β 1i (caspase-like) protease activity associated with the proteasome complex in cultured cells. Specifically, the following substrates were used for respective subunit activities: β 1i: (PAL)2Rh110, β 1c: (LLE)2 Rh110, β2c/2i: (KQL)2Rh110, β 5c: (WLA)2Rh110, β 5i: (ANW)2Rh110. The following procedure was followed:
(§3) Cell preparation: Plated 25 μl of Ramos cells (2×10^6/ml in DPBS) into half area plate (PerkinElmer Cat 6005569) to final 5×10^4 cells/well. Added 0.5 μl of 100×4-fold serial diluted test compounds or DMSO to each well. Highest concentration of compound tested was 20 thus compound serial dilution started from […]. Incubated for 30 minutes at 37° C. Then equilibrated at room temperature for 15 minutes. Added 25 μl of 2× reaction mix consisting of 0.025% digitonin, 20 μM of each substrates and 0.5M sucrose in DPBS. Shaked for one minute @ 700 rpm. Incubated for […] at room temperature. Then read the plates with an Envision multilabel plate reader (PerkinElmer) with 500 nm excitation/519 nm emission.

β 5c = target: T2, β 5c (Homo sapiens, UniProt P20618+P28074); experiment: Cell-Based Proteasome Activity/Selectivity Assay, Ramos cells, substrate (WLA)2Rh110; settings: β5c substrate (WLA)2Rh110
T2 construct: protease activity associated with the proteasome complex in cultured cells; endogenous in cells; host or cells: Ramos cells
Text: as §1, §2, §3

β2c/2i = experiment: Cell-Based Proteasome Activity/Selectivity Assay, Ramos cells, substrate (KQL)2Rh110; settings: β2c/2i substrate (KQL)2Rh110
Text: as §1, §2, §3

β 1i = target: T3, β 1i (Homo sapiens, UniProt P28065+P40306); experiment: Cell-Based Proteasome Activity/Selectivity Assay, Ramos cells, substrate (PAL)2Rh110; settings: β1i substrate (PAL)2Rh110
T3 construct: protease activity associated with the proteasome complex in cultured cells; endogenous in cells; host or cells: Ramos cells
Text: as §1, §2, §3

β 1c = target: T4, β 1c (Homo sapiens, UniProt P28072+Q99436); experiment: Cell-Based Proteasome Activity/Selectivity Assay, Ramos cells, substrate (LLE)2 Rh110; settings: β1c substrate (LLE)2 Rh110
T4 construct: protease activity associated with the proteasome complex in cultured cells; endogenous in cells; host or cells: Ramos cells
Text: as §1, §2, §3

IP 10 level = experiment: PBMC IP-10 Assay; type: cell-based; settings: Homo sapiens, PBMCs stimulated with CpG Type A, assay not named in the column head
Protocol: PBMCs were isolated from whole blood as follows: Blood was collected in a sterile environment in heparinized tubes. Blood was diluted with an equal volume PBS/2% FCS and 30 ml of this mixture was added to ACCUSPIN tubes containing 15 ml Histopaque-1077 already centrifuged at 800 g for 30 seconds and warmed up at room temperature. The tubes were then centrifuged at 800 g for 20 minutes at room temperature with no brake. The mononuclear band, just above the polyethylene frit, was removed by Pasteur pipet. These mononuclear cells were washed three times with sterile PBS, counted, and resuspended in RPMI 1640 supplemented with 10% heat inactivated fetal calf serum, 10 mM HEPES, 1 mM sodium pyruvate, penicillin (50 U/ml), streptomycin (50 μg/ml) and glutamine (2 mM) to approximately 1.5×10^6/ml. […] PBMC viability of cells remaining in the well was measured with ATPlite luminescence assay (Perkin-Elmer) per the manufacturer's instructions. Luminescence was measured on the Perkin-Elmer Envision, using the luminescence filter. IP 10 level was measured with CXCL10/IP10 AlphaLISA kit (Perkin-Elmer) per the manufacturer's instructions, except halving all volumes. Fluorescence was measured on the Envision Multilabel plate reader, using the AlphaScreen standard settings.

LMP7 [1] = target: T5, LMP7 (Mus musculus, UniProt O09061+P28063); settings: mouse CAIA and CIA arthritis models; cited from earlier work
LMP7 [2] = target: T5, LMP7; settings: MRL/lpr lupus-prone mice; cited from earlier work
LMP7 [3] = target: T5, LMP7; settings: DSS-induced colitis model in mice; cited from earlier work

SMILES	IC50 (β 5i)	IC50 (β 5c)	IC50 (β2c/2i)	IC50 (β 1i)	IC50 (β 1c)	EC50 (IP 10 level)	disease score (LMP7 [1])	disease progression (LMP7 [2])	plasma cells numbers and levels of anti-dsDNA IgG (LMP7 [2])	inflammation and tissue destruction (LMP7 [3])
C[C@@H]1NC(=O)CCc2cccc(c2)-c2cccc(c2)CC[C@@H](C(=O)N[C@@H](Cc2ccccc2)C(=O)C(=O)NCc2ccccc2)NC1=O [Example 1, (9S,12S)-12-Methyl-11,14-dioxo-10,13-diaza-tricyclo[15.3.1.1^2,6]docosa-1(20),2(22),3,5,17(21),18-hexaene-9-carboxylic acid ((S)-1-benzyl-2-benzylcarbamoyl-2-oxo-ethyl)-amide]	19 nM	353 nM	> 20000 nM	1970 nM	> 20000 nM	347 nM				
COc1ccc(C[C@H](NC(=O)[C@H](C)NC(=O)CN2CCOCC2)C(=O)N[C@@H](Cc2ccccc2)C(=O)[C@@]2(C)CO2)cc1 [PR-957]							significantly decrease disease score	prevented disease progression	reduced plasma cells numbers and levels of anti-dsDNA IgG	reduced inflammation and tissue destruction
